Numbered stars: 1 amine (or outer) side, 2 acyl side, 3 side chain; on linkers, the order of the positions; unused ones are H or OH. Square brackets hold non-standard residues; d marks the D form. Peptide text beside a SMILES is read from it. * marks the point of attachment. X1 = O=C(O)[C@H]1O[C@@H](Oc2ccc(COC(=O)[*:2])cc2N[*:1])[C@H](O)[C@@H](O)[C@@H]1O; CH3O(CH2CH2O)11CH2CH2CO = COCCOCCOCCOCCOCCOCCOCCOCCOCCOCCOCCOCCC(=O)*; Dolaproine = CO[C@@H]([C@@H]1CCCN1)[C@@H](C)C(=O)O; Hexanoyl(6-maleimido) = O=C1C=CC(=O)N1CCCCCC(=O)*; Propanoyl(3-maleimido) = O=C1C=CC(=O)N1CCC(=O)*; Dil = CC[C@H](C)[C@H](NC)[C@@H](CC(=O)O)OC; PABC = O=C(OCc1ccc(N[*:1])cc1)[*:2]; X2 = C[C@@H](N*)[C@@H](O)c1ccccc1; Cit = NC(=O)NCCC[C@H](N)C(=O)O; NMeV = CN[C@H](C(=O)O)C(C)C; βAla = NCCC(=O)O
Legend:
Type in all cases: biochemical
[1] = molecular target: Cathepsin B (Homo sapiens, UniProt P07858); assay: Linker-Payload enzymatic cleavage with Cathepsin B; settings: 0.14 μM enzyme, 70 μM Linker-Payload, pH 5.0, 37° C., 24 hours
Description: (§1) 0.14 μM Cathepsin B was added to 70 μM Linker-Payload (1:500) in 50 mM sodium acetate, 1 mM DTT, pH 5.0. The mixture was incubated at 37° C. for a duration of 24 hours with intermediate timepoints collected and diluted 1:1 with buffer containing acetonitrile, water and formic acid. The sample was measured by reverse-phase HPLC with data quantified against a standard curve.

[2] = molecular target: T1, β-glucuronidase (Homo sapiens, UniProt P08236); assay: Linker-Payload enzymatic cleavage with β-glucuronidase; settings: 4 nM enzyme, 40 μM Linker-Payload, pH 5.0, 37° C., 24 hours
T1 sequence (P08236 23-651): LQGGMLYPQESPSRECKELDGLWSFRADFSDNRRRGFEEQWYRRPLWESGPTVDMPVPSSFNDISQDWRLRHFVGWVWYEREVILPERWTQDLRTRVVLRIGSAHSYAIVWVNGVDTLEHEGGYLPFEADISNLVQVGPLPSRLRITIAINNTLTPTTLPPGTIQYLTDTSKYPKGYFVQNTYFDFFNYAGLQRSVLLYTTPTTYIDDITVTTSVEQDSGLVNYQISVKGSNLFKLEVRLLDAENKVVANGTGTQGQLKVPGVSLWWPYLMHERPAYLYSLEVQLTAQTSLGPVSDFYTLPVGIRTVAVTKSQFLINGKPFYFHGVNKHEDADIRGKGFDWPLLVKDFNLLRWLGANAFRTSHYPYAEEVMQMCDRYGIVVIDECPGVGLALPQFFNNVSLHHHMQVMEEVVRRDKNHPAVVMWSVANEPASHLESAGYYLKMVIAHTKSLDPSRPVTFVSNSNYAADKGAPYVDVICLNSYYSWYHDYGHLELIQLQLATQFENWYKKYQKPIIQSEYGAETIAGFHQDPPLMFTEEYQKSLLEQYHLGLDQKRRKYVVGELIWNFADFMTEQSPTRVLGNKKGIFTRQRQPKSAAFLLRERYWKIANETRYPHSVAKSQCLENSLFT
Description: as §1, with “4 nM β-glucuronidase” for “0.14 μM Cathepsin B”, “40” for “70”, “(1:10,000)” for “(1:500)”, “acetate,” for “acetate, 1 mM DTT,”

[3] = molecular target: T2, Human neutrophil elastase (Homo sapiens, UniProt P08246); assay: Linker-Payload enzymatic cleavage with human neutrophil elastase; settings: 0.67 μM enzyme, 67 μM Linker-Payload, pH 7.4, 37° C., 24 hours
T2 sequence (P08246 30-267): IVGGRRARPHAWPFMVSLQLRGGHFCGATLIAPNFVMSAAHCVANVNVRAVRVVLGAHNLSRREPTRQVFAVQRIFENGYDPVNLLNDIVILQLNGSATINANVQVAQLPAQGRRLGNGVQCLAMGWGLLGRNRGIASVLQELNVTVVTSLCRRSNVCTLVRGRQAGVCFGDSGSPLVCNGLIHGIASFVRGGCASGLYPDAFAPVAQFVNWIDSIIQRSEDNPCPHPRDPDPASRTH
Description: as §1, with “0.67” for “0.14”, “Human neutrophil elastase” for “Cathepsin B”, “67” for “70”, “(1:100)” for “(1:500)”, “Tris Buffered Saline,” for “50 mM sodium acetate, 1 mM DTT,”, “7.4.” for “5.0.”

## CC[C@H](C)[C@@H]([C@@H](CC(=O)N1CCC[C@H]1[C@H](OC)[C@@H](C)C(=O)N[C@H](C)[C@@H](O)c1ccccc1)OC)N(C)C(=O)[C@@H](NC(=O)[C@H](C(C)C)N(C)C(=O)OCc1ccc(O[C@@H]2O[C@H](C(=O)O)[C@@H](O)[C@H](O)[C@H]2O)c(CNC(=O)CCNC(=O)COC2(CNC(=O)CCN3C(=O)C=CC3=O)CN(C(=O)CCOCCOCCOCCOCCOCCOCCOCCOCCOCCOCCOCCOC)C2)c1)C(C)C [LP2]
[1]
  cleavage in the presence of cathepsin B (FIG. 1B): neither LP2 nor LP3 underwent rapid cleavage
[2]
  cleavage in the presence of β-glucuronidase (FIG. 1A): underwent significant cleavage
  cleavage rate in the presence of β-glucuronidase relative to LP7 and LP8 (FIG. 1E): underwent slower cleavage than both LP7 (Reference) and LP8 (Reference)
[3]
  cleavage in the presence of human neutrophil elastase (FIG. 1C): did not undergo rapid cleavage
  cleavage in the presence of human neutrophil elastase (FIG. 1D): did not undergo rapid cleavage

## CC[C@H](C)[C@@H]([C@@H](CC(=O)N1CCC[C@H]1[C@H](OC)[C@@H](C)C(=O)N[C@H](C)[C@@H](O)c1ccccc1)OC)N(C)C(=O)[C@@H](NC(=O)[C@H](C(C)C)N(C)C(=O)OCc1ccc(O[C@@H]2O[C@H](C(=O)O)[C@@H](O)[C@H](O)[C@H]2O)c(NC(=O)CCNC(=O)[C@H](CCCCNC(=O)CCOCCOCCOCCOCCOCCOCCOCCOCCOCCOCCOCCOC)NC(=O)CCN2C(=O)C=CC2=O)c1)C(C)C [LP8, reference compound] ({Propanoyl(3-maleimido)}-K(CH3O(CH2CH2O)11CH2CH2CO)[βAla][X1][NMeV]V[Dil][Dolaproine]-X2)
[3]
  cleavage in the presence of human neutrophil elastase (FIG. 1D): did not undergo rapid cleavage

## CC[C@H](C)[C@@H]([C@@H](CC(=O)N1CCC[C@H]1[C@H](OC)[C@@H](C)C(=O)N[C@H](C)[C@@H](O)c1ccccc1)OC)N(C)C(=O)[C@@H](NC(=O)[C@H](C(C)C)N(C)C(=O)OCc1ccc(NC(=O)[C@H](CCCNC(N)=O)NC(=O)[C@@H](NC(=O)CCCCCN2C(=O)C=CC2=O)C(C)C)cc1)C(C)C [LP1, maleimidocaproyl-valine-citrulline-p-amrninobenzoyloxycajrbonyl-MMAE, reference compound] ({Hexanoyl(6-maleimido)}-V[Cit][PABC][NMeV]V[Dil][Dolaproine]-X2)
[3]
  cleavage in the presence of human neutrophil elastase (FIG. 1C): underwent more rapid cleavage

## CC[C@H](C)[C@@H]([C@@H](CC(=O)N1CCC[C@H]1[C@H](OC)[C@@H](C)C(=O)N[C@H](C)[C@@H](O)c1ccccc1)OC)N(C)C(=O)[C@@H](NC(=O)[C@H](C(C)C)N(C)C(=O)OCc1ccc(O[C@@H]2O[C@H](C(=O)O)[C@@H](O)[C@H](O)[C@H]2O)c(CNC(=O)CCNC(=O)[C@H](CCCCNC(=O)CCOCCOCCOCCOCCOCCOCCOCCOCCOCCOCCOCCOC)NC(=O)CCN2C(=O)C=CC2=O)c1)C(C)C [LP7, reference compound]
[3]
  cleavage in the presence of human neutrophil elastase (FIG. 1D): did not undergo rapid cleavage

## CC[C@H](C)[C@@H]([C@@H](CC(=O)N1CCC[C@H]1[C@H](OC)[C@@H](C)C(=O)N[C@H](C)[C@@H](O)c1ccccc1)OC)N(C)C(=O)[C@@H](NC(=O)[C@H](C(C)C)N(C)C(=O)OCc1ccc(O[C@@H]2O[C@H](C(=O)O)[C@@H](O)[C@H](O)[C@H]2O)c(CNC(=O)COC2(CNC(=O)CCN3C(=O)C=CC3=O)CN(C(=O)CCOCCOCCOCCOCCOCCOCCOCCOCCOCCOCCOCCOC)C2)c1)C(C)C [LP3]
[1]
  cleavage in the presence of cathepsin B (FIG. 1B): neither LP2 nor LP3 underwent rapid cleavage
[2]
  cleavage in the presence of β-glucuronidase (FIG. 1A): underwent significant cleavage
[3]
  cleavage in the presence of human neutrophil elastase (FIG. 1C): did not undergo rapid cleavage

— US20250057969A1, “CONJUGATES COMPRISING CLEAVABLE LINKERS” (priority 2023, published 2025)
